# In US7964609B2, “Use of mGluR5 antagonists for the treatment of gerd” (AstraZeneca AB, priority 2002, dated 2011):
# Tested on: transient lower esophageal sphincter relaxations (TLESRs)
# Test: Screening for compounds active against TLESR, Barostat model (air infusion to an intragastric pressure of 10±1 mmHg)
# Assay type: in vivo, Adult Labrador retrievers
# Conditions: dose 1 μmol/kg/h, infusion during 60 min
# Description: Adult Labrador retrievers of both genders, trained to stand in a Pavlov sling, are used. Mucosa-to-skin esophagostomies are formed and the dogs are allowed to recover completely before any experiments are done. In brief, after fasting for approximately 17 h with free supply of water, a multilumen sleeve/sidehole assembly ([…], Adelaide, South Australia) is introduced through the esophagostomy to measure gastric, lower esophageal sphincter (LES) and esophageal pressures. The assembly is perfused with water using a low-compliance manometric perfusion pump ([…], Adelaide, South Australia). An air-perfused tube is passed in the oral direction to measure swallows, and an antimony electrode monitored pH, 3 cm above the LES. All signals are amplified and acquired on a personal computer at 10 Hz. When a baseline measurement free from fasting gastric/LES phase III motor activity has been obtained, placebo (0.9% NaCl) or test compound is administered intravenously (i.v., 0.5 ml/kg) in a foreleg vein. […] Immediately following the meal, air is insufflated at 40 ml/min. In an alternative model (Barostat model), the infusion of the nutrient meal is followed by air infusion at a rate of 500 ml/min until a intragastric pressure of 10±1 mmHg is obtained. […]
compound,measurement,value
"N#Cc1cc(F)cc(-c2nc(-c3ccc(F)cn3)no2)c1 [3-fluoro-5-[3-(5-fluoropyridin-2-yl)-1,2,4-oxadiazol-5-yl]benzonitrile]",% INHIBITION ± SEM (N),70 ± 4 (3) %
